Measurements: US12611406B2, “Oxopiperazine derivatives for the treatment of cancer” (Inthera Bioscience AG, priority 2020, dated 2026)
Where two headings read alike, the source gives them in different places.

Test: 14-day daily oral repeated-dose DRF study in cynomolgus monkeys (mesylate salt)
Type: in vivo
Conditions: for half-life / AUC(0-t) / Cmax / Tmax: cynomolgus monkey, plasma
Method: The objective of this exploratory study was to assess the TK profile of Compound 1 when repeatedly administered via the oral route to cynomolgus monkeys.
Compound 1 (mesylate salt) administration in this dose-range-finder study was intended once daily for up to 14 consecutive days by oral gavage to groups of naïve cynomolgus monkeys (n=1/sex/group) at dose levels of 0.5, 4, 8, or 12 mg Compound 1 per kg bodyweight and day, using a staggered approach. The vehicle was 0.5% Methylcellulose in water. The actual dose levels and durations of dosing were flexibly adapted according to signs of tolerability and PK: Group 1 animals were dosed at 0.5 mg/kg/day for 10 days and after a 4-day washout phase for additional 12 days at 4 mg/kg/days; Group 2 animals at 12 mg/kg/day for 11 days; Group 3 animals at 8 mg/kg for 10 (males) or 9 (females) days; and Group 4 animals at 8 mg/kg for 5 days, respectively, as summarized in Table 10.
The animals in the final group 4 were dosed orally once daily or 5 days with 8 mg/kg Compound 1 before a 9-day recovery phase was given.

[1] = both sexes, po, 0.5 mg/kg, 0.5 mg/kg (Gr. 1), Day 1
[2] = both sexes, po, 8 mg/kg, 8 mg/kg (Gr. 3), Day 1
[3] = both sexes, po, 8 mg/kg, 8 mg/kg (Gr. 3), Day 5
[4] = both sexes, po, 8 mg/kg, 8 mg/kg (Gr. 4), Day 1
[5] = both sexes, po, 8 mg/kg, 8 mg/kg (Gr. 4), Day 5
[6] = both sexes, po, 12 mg/kg, 12 mg/kg (Gr. 2), Day 1
[7] = both sexes, po, 12 mg/kg, 12 mg/kg (Gr. 2), Day 7
[8] = po, 0.5 mg/kg, 0.5 mg/kg (Gr. 1), Day 7
[9] = po, 4 mg/kg, 4 mg/kg (Gr. 1), Day 1
[10] = po, 4 mg/kg, 4 mg/kg (Gr. 1), Day 5
[11] = po, 4 mg/kg, 4 mg/kg (Gr. 1), Day 11

CC(C)C[C@@H]1NCCN([C@@H](CC(C)C)C(=O)N2CCC3(C[C@@H]2C)OCC(CN2CCCC2)CO3)C1=O (stereo partly drawn) [Compound 1, (S)-3-isobutyl-1-((S)-4-methyl-1-((S)-8-methyl-3-(pyrrolidin-1-ylmethyl)-1,5-dioxa-9-azaspiro[5.5]undecan-9-yl)-1-oxopentan-2-yl)piperazin-2-one]
half-life (both sexes, oral, in general, all groups, read-out: mean terminal plasma elimination half-lives): 4.4 to 8.4 h | AUC(0-t) [1]: 0.7 ng·h/mL | Cmax [1]: 0.24 ng/mL | Tmax [1]: 1.5 h | half-life (both sexes, po, 0.5 mg/kg, 0.5 mg/kg (Gr. 1), Day 1, read-out: T1/2 (converted)): 4.9 h | half-life (both sexes, po, 4 mg/kg, 4 mg/kg (Gr. 1), Day 11, read-out: T1/2 (converted)): 5.1 h | AUC(0-t) [2]: 64.9 ng·h/mL | Cmax [2]: 21.7 ng/mL | Tmax [2]: 1 h | half-life (both sexes, po, 8 mg/kg, 8 mg/kg (Gr. 3), Day 1, read-out: T1/2 (converted)): 4.6 h | AUC(0-t) [3]: 92 ng·h/mL | Cmax [3]: 18.8 ng/mL | Tmax [3]: 1 h | half-life (both sexes, po, 8 mg/kg, 8 mg/kg (Gr. 3), Day 5, read-out: T1/2 (converted)): 6.5 h | AUC(0-t) [4]: 30.4 ng·h/mL | Cmax [4]: 8.95 ng/mL | Tmax [4]: 1 h | half-life (both sexes, po, 8 mg/kg, 8 mg/kg (Gr. 4), Day 1, read-out: T1/2 (converted)): 5.4 h | AUC(0-t) [5]: 51.3 ng·h/mL | Cmax [5]: 13.8 ng/mL | Tmax [5]: 1.5 h | half-life (both sexes, po, 8 mg/kg, 8 mg/kg (Gr. 4), Day 5, read-out: T1/2 (converted)): 6.4 h | AUC(0-t) [6]: 86 ng·h/mL | Cmax [6]: 31.2 ng/mL | Tmax [6]: 1 h | half-life (both sexes, po, 12 mg/kg, 12 mg/kg (Gr. 2), Day 1, read-out: T1/2 (converted)): 6.6 h | AUC(0-t) [7]: 214 ng·h/mL | Cmax [7]: 48.8 ng/mL | Tmax [7]: 1 h | half-life (both sexes, po, 12 mg/kg, 12 mg/kg (Gr. 2), Day 7, read-out: T1/2 (converted)): 7.4 h | Tmax (both sexes, po, after oral administration, all groups): 1 to 1.5 h | AUC(0-t) [8]: 1.2 ng·h/mL | Cmax [8]: 0.18 ng/mL | Tmax [8]: 1 h | half-life (po, 0.5 mg/kg, 0.5 mg/kg (Gr. 1), Day 7, read-out: T1/2 (converted)): 18.5 h | AUC(0-t) [9]: 10.5 ng·h/mL | Cmax [9]: 2.95 ng/mL | Tmax [9]: 1 h | half-life (po, 4 mg/kg, 4 mg/kg (Gr. 1), Day 1, read-out: T1/2 (converted)): 4.4 h | AUC(0-t) [10]: 9.5 ng·h/mL | Cmax [10]: 2.3 ng/mL | Tmax [10]: 1 h | half-life (po, 4 mg/kg, 4 mg/kg (Gr. 1), Day 5, read-out: T1/2 (converted)): 8.4 h | AUC(0-t) [11]: 10.9 ng·h/mL | Cmax [11]: 3.06 ng/mL | Tmax [11]: 1 h | tolerability (daily 0.5 and 4 mg/kg/day for 10 or 12 days): tolerated | tolerability (daily 8 and 12 mg/kg/day for 10 days): not tolerated
